The source of these data is ChEMBL document CHEMBL5303710, “ECBD screening data for assay EOS300044” (2022).

The target in the experiment is Replicase polyprotein 1ab (Severe acute respiratory syndrome coronavirus 2) (UniProt P0DTD1). Briefly: Inhibition of SARS-CoV-2 3CL-Pro proteolytic cleavage of a dual-labeled substrate by FRET at 1mM DTT. In kind it is functional. Details: assay stage.

SMILES strings stand for the structures.

`CCN(CC)S(=O)(=O)c1cccc(-n2sc3ccccc3c2=O)c1`: the IC50 relative was less than 0.02 µM.

`O=c1c2ccccc2sn1-c1ccccc1`: the IC50 relative is less than 0.02 µM.

Take `COc1ncc(-c2ccc3nccc(-c4ccnnc4)c3c2)cc1NS(=O)(=O)c1ccc(F)cc1F`: the IC50 relative was greater than 20 µM.

As to `O=C(c1ccc(Cl)cc1)c1cc([N+](=O)[O-])ccc1N1CCOCC1`, the IC50 relative is greater than 20 µM.

With `O=C(CC1Sc2ncnn2C1=O)Nc1ccc(Br)cc1` (centres undefined), the IC50 relative was greater than 20 µM.

For the compound `COC(=O)CC[C@H](NC(=O)[C@H](CC(=O)OC)NC(=O)OCc1ccccc1)C(=O)N[C@H](C(=O)N[C@@H](CC(=O)OC)C(=O)CF)C(C)C`, the IC50 relative was less than 0.02 µM.

With `O=C1C(Cl)=C(N2CCOCC2)C(=O)N1c1ccc(Cl)c(Cl)c1`, the IC50 relative was greater than 20 µM.

Consider `O=C(Nc1ccccc1)Nc1ccc(-c2ccc(C(=O)[C@@H]3CCC[C@H]3C(=O)O)cc2)cc1`, for which the IC50 relative is greater than 20 µM.

As to `CCCCn1c(NC(=O)c2cccs2)c(C#N)c2nc3ccccc3nc21`, the IC50 relative was greater than 20 µM.

On to `CN(C)S(=O)(=O)c1cccc(-n2sc3ccccc3c2=O)c1`, for which the IC50 relative was less than 0.02 µM.

Take `c1ccc2sc(SSc3nc4ccccc4s3)nc2c1`: the IC50 relative was 0.537 µM.

As for `CCOc1cc(C(Nc2cc(C)ccn2)c2ccc3cccnc3c2O)ccc1OC` (centres undefined), the IC50 relative is greater than 20 µM.

Consider `Oc1cc2c(cc1O)C(c1ccccc1)CNCC2` (centres undefined), for which the IC50 relative is greater than 20 µM.

As for `Cc1cc(-c2ccc(/N=N/c3ccc4c(S(=O)(=O)O)cc(S(=O)(=O)O)c(N)c4c3O)c(C)c2)ccc1/N=N/c1ccc2c(S(=O)(=O)O)cc(S(=O)(=O)O)c(N)c2c1O`, the IC50 relative was 0.0219 µM.

Consider `O=C(CCl)c1ccccc1`, for which the IC50 relative is 0.246 µM.

`S=C=NCc1ccccc1`: the IC50 relative was greater than 20 µM.

Take `Oc1cc2c(cc1C(c1ccc(C(F)(F)F)cc1)N1CCOCC1)OCO2` (centres undefined): the IC50 relative was greater than 20 µM.

In the case of `O=c1cc(-c2ccccc2)oc2cc(O)c(O)c(O)c12`, the IC50 relative is greater than 20 µM.

Turning to `CC1=CC(=O)c2ccccc2C1=O`, the IC50 relative was greater than 20 µM.

In the case of `Sc1nnc(-c2ccccc2Cl)o1`, the IC50 relative was 7.71 µM.

For `CCN1CCN(C(c2ccc(C(F)(F)F)cc2)c2ccc3cccnc3c2O)CC1` (centres undefined), the IC50 relative was 1.34 µM.

As for `COc1ccnc(C[S+]([O-])c2nc3cc(OC(F)F)ccc3[nH]2)c1OC` (centres undefined), the IC50 relative is greater than 20 µM.

Regarding `Cc1ccc(C)c(-n2sc3cc(F)ccc3c2=O)c1`, the IC50 relative is less than 0.02 µM.

On to `NC(Cc1cc(O)c(O)cc1O)C(=O)O` (racemic), for which the IC50 relative is greater than 20 µM.

For the compound `Nc1ccc(O)c2ncccc12`, the IC50 relative was greater than 20 µM.

Consider `Cc1cc(-c2ccc(/C=C3/S/C(=N\c4ccc(Cl)c(C(=O)O)c4)NC3=O)o2)c([N+](=O)[O-])cc1C`, for which the IC50 relative was greater than 20 µM.

On to `Cc1c(-c2ccc(N3CCc4cccc(C(=O)Nc5nc6ccccc6s5)c4C3)nc2C(=O)O)cnn1CC12CC3CC(CC(C3)C1)C2`, for which the IC50 relative is greater than 20 µM.

Turning to `CCN(CC)C(=S)S`, the IC50 relative was greater than 20 µM.

As for `CC(Cc1ccc(O)c(O)c1)C(C)Cc1ccc(O)c(O)c1` (centres undefined), the IC50 relative is greater than 20 µM.

On to `O=C(/C=C/c1ccc2ccccc2n1)c1ccncc1`, for which the IC50 relative is 0.191 µM.

With `COc1cc(N(C)C)cc(CN(C)CCc2ccc([N+](=O)[O-])cc2)c1O`, the IC50 relative is greater than 20 µM.

In the case of `COc1ccc2[nH]c(S)nc2c1`, the IC50 relative is greater than 20 µM.

In the case of `O=C(c1cccs1)c1no[n+]([O-])c1C(=O)c1cccs1`, the IC50 relative was greater than 20 µM.

For the compound `O=[N+]([O-])c1ccc(Sc2cccc[n+]2[O-])c2nonc12`, the IC50 relative was 0.53 µM.

For the compound `O=C(NC(=S)N1CCCc2ccccc21)c1ccccc1`, the IC50 relative is greater than 20 µM.

Take `Cc1ccc(-n2sc(=O)n(Cc3ccc(F)cc3)c2=O)cc1`: the IC50 relative is 0.148 µM.

As to `S=C=Nc1cccc(NC(=S)NCCCCNC(=S)Nc2cccc(N=C=S)c2)c1`, the IC50 relative was greater than 20 µM.

Consider `O=c1c(O)cccc2cc(O)c(O)c(O)c12`, for which the IC50 relative was greater than 20 µM.

Consider `CC(C)(C)OC(=O)NCCc1nnc(S(=O)(=O)Cc2ccc(Cl)cc2Cl)o1`, for which the IC50 relative is 7.29 µM.

Consider `Cn1sc(=O)n(Cc2ccccc2)c1=O`, for which the IC50 relative was less than 0.02 µM.

In the case of `O=C(O)[C@@H](S)[C@@H](S)C(=O)O`, the IC50 relative was 0.0836 µM.

`Cc1ccc(-n2sc3ccccc3c2=O)cc1`: the IC50 relative is less than 0.02 µM.

Regarding `Sc1nnnn1-c1ccccc1`, the IC50 relative was greater than 20 µM.

Turning to `COc1ccc2[nH]c([S+]([O-])Cc3ncc(C)c(OC)c3C)nc2c1` (centres undefined), the IC50 relative was greater than 20 µM.

For `CN1CCN(C(=O)c2ccc(-c3ccc4c(C=O)c(O)ccc4c3)s2)CC1`, the IC50 relative is 5.65 µM.

In the case of `O=C1C(Cl)=C(Cl)C(=O)C(Cl)=C1Cl`, the IC50 relative is 0.183 µM.

Take `Sc1nnc(Nc2ccccc2)s1`: the IC50 relative was greater than 20 µM.

With `Cc1c(OCC(F)(F)F)ccnc1C[S+]([O-])c1nc2ccccc2[nH]1` (centres undefined), the IC50 relative is greater than 20 µM.

For the compound `Nc1nc(S)c2ncn(C3OC(CO)C(O)C3O)c2n1` (centres undefined), the IC50 relative is 1.45 µM.

For the compound `CCOC(=O)c1c(N)sc(-c2ccccc2)c1C`, the IC50 relative was 3.61 µM.

Turning to `Cc1cc(C)cc(N2C(=O)CC(Sc3nc[nH]n3)C2=O)c1` (centres undefined), the IC50 relative was greater than 20 µM.

For `O=C(O)c1c(Cl)c(Cl)c(Cl)c(Cl)c1-c1c2cc(I)c(=O)c(I)c-2oc2c(I)c(O)c(I)cc12`, the IC50 relative was greater than 20 µM.

Regarding `COc1ccc2[nH]c3c(S)ncnc3c2c1`, the IC50 relative is greater than 20 µM.

Turning to `Cc1ccc(S(=O)(=O)N[C@@H](Cc2ccccc2)C(=O)CCl)cc1`, the IC50 relative is 0.839 µM.
